The target of the experiment is T1, human GPR84 receptor (Homo sapiens, UniProt Q9NQS5).
T1 construct: frozen aliquots prepared by acCELLerate; host or cells: CHO-K1
T1 sequence (Q9NQS5 whole entry): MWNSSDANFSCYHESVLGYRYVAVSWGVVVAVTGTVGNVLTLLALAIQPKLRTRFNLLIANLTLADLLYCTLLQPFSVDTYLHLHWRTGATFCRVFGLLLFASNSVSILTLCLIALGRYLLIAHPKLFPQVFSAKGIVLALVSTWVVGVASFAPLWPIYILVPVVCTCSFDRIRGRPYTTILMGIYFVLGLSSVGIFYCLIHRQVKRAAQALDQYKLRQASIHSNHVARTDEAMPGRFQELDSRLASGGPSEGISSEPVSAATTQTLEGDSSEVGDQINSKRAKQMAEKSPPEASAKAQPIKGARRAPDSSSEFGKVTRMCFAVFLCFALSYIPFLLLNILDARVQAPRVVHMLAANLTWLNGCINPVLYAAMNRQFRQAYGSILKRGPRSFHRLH
The experiment is described as follows: cAMP HTRF assay for identification of cellular GPR84 antagonists. Conditions: CHO-K1 cells stably expressing human GPR84; Forskolin + agonist 6-OAU (EC80); average or median values. It counts as cell-based. The source says:
cAMP HTRF® Assay for Identification of Cellular GPR84 Antagonists
By using a Homogenous Time-Resolved Fluorescence (HTRF®) based assay (#62AM5PEJ, Cisbio, Condolet, France) the inhibition of the Gi-coupled GPR84 receptor can be detected. CHO-K1 cells stably expressing human GPR84 receptor (purchased from DiscoveRx, now Eurofins) were used and treated with Forskolin (F6886, Sigma, Germany) to stimulate membrane adenylyl cyclases and thereby unspecific cAMP formation. Activation of the Gi-coupled GPR84 by a natural or small molecule agonist (e.g. 6-n-octyl aminouracile, inhouse) results in inhibition of cellular cAMP formation which can be released again by antagonists to this receptor. Detection and quantification of cellular cAMP levels in this HTRF assay is achieved by interaction between a fluorescent cAMP tracer (cAMP-d2) and an Eu-cryptate labelled anti-cAMP antibody. Following excitation at 337 nm this pairing allows for the generation of a fluorescence resonance energy transfer (FRET) between the partners and results in FRET induced emissions at 665 nm and 620 nm, the latter representing background signal by Eu-cryptate labelled anti-cAMP antibody. Maximal signal is obtained in the absence of any cellular cAMP (no competition for the binding of the tracer to the antibody). Given the combination of the Gi coupling properties of GPR84 and the competitive nature of the detection system agonist treatment should result in an increase in the HTRF signal due to lowered cAMP levels. Any signal decrease in the presence of Forskolin, agonist and compound is indicative of antagonist mediated abrogation of GPR84 signalling.
For the assay, frozen aliquots of CHO-K1 cells expressing hGPR84 (prepared by acCELLerate, Hamburg, Germany) were thawed and a cell suspension (1.67E+06 cells/mL) in assay media (Ham's F12 Nutrient Mix, Thermo Fisher Scientific, Waltham, USA; 5% fetal calf serum, Biomol, Hamburg, Germany) containing cAMP-d2 (dilution 1:20, supplied with the kit #62AM5PEJ, Cisbio, Condolet, France) was prepared. After recovery of cells for 20 minutes at 37° C., 3 μL/well cell suspension including cAMP-d2 were added to a pre-dispensed assay plate (Greiner Bio-One, Kremsmuenster, Austria) containing 50 nl/well test compound in 100% DMSO or 100% DMSO as control. This was followed by a 30 minutes incubation step at room temperature. […] The reaction was stopped by addition of 3 μL/well lysis buffer containing cAMP Eu-Cryptate antibody (dilution 1:20) (both supplied with the kit #62AM5PEJ, Cisbio, Condolet, France). To enable complete lysis, plates were incubated for 60 minutes at room temperature before measurement in an HTRF reader, e.g. a PHERAstar (BMG Labtech, Ortenberg, Germany).
From the fluorescence emissions at 665 nm (FRET) and at 620 nm (background signal of Eu-cryptate) the ratio (emission at 665 nm divided by emission at 620 nm×10000) was calculated and the data were normalized (reaction without test compound, only 100% DMSO=0% inhibition; all other assay components except agonist=100% inhibition). For dose response testing on the same microtiter plate, compounds were tested at 11 different concentrations in the range of 20 μM to 0.07 nM (20 μM, 5.7 μM, 1.6 μM, 0.47 μM, 0.13 μM, 38 nM, 11 nM, 3.1 nM, 0.89 nM, 0.25 and 0.07 nM; dilution series prepared before the assay at the level of the 100-fold conc. stock solutions by serial 1:3.5 dilutions in 100% DMSO) in duplicate values for each concentration. IC50 values were calculated by 4-parameter fitting using a commercial software package (Genedata Screener, Basel, Switzerland).
Examples were tested in selected biological assays one or more times. […]
As for `Cc1c(C(=O)NC[C@@H]2COCCO2)oc2c1-c1nn(C[C@H]3COCCO3)cc1C(C(F)(F)F)C2` (mixture of isomers) [Example 265, (4±)-N-{[(2R)-1,4-dioxan-2-yl]methyl}-2-{[(2S)-1,4-dioxan-2-yl]methyl}-8-methyl-4-(trifluoromethyl)-4,5-dihydro-2H-furo[2,3-g]indazole-7-carboxamide], the IC50 came to 238 nM.
`Cc1c(C(=O)NC[C@@H]2CCCO2)oc2c1-c1nn(C[C@H]3COCCO3)cc1C(C(F)(F)F)C2` (mixture of isomers) [Example 266, (4±)-2-{[(2S)-1,4-dioxan-2-yl]methyl}-8-methyl-N-{[(2S)-oxolan-2-yl]methyl}-4-(trifluoromethyl)-4,5-dihydro-2H-furo[2,3-g]indazole-7-carboxamide]: the IC50 amounted to 607 nM.
As for `Cc1c(C(=O)NC[C@@H]2CCCO2)oc2c1-c1nn(C(C)c3ccccn3)cc1CC2` (mixture of isomers) [Example 317, 8-methyl-N-{[(2S)-oxolan-2-yl]methyl}-2-[(1±)-1-(pyridin-2-yl)ethyl]-4,5-dihydro-2H-furo[2,3-g]indazole-7-carboxamide], the IC50 came out at 578 nM.
As to `Cc1c(C(=O)NCC2CCCO2)oc2c1-c1nn(Cc3ccccn3)cc1CC2` (racemic) [Example 3, 8-methyl-2-(pyridin-2-ylmethyl)-N-[(2R/S)-tetrahydrofuran-2-ylmethyl]-4,5-dihydro-2H-furo[2,3-g]indazole-7-carboxamide], the IC50 is 240 nM.
With `Cc1c(C(=O)NCC2COc3ncccc3O2)oc2c1-c1nn(Cc3ccccn3)cc1CC2` (racemic) [Example 9, N-[(2R/S)-2,3-dihydro[1,4]dioxino[2,3-b]pyridin-2-ylmethyl]-8-methyl-2-(pyridin-2-ylmethyl)-4,5-dihydro-2H-furo[2,3-g]indazole-7-carboxamide], the IC50 is 190 nM.
For the compound `Cc1c(C(=O)N2CCCC2CN)oc2c1-c1nn(Cc3ccccn3)cc1CC2` (racemic) [Example 30, [(2R/S)-2-(aminomethyl)pyrrolidin-1-yl][8-methyl-2-(pyridin-2-ylmethyl)-4,5-dihydro-2H-furo[2,3-g]indazol-7-yl]methanone], the concentration for half-maximal inhibition (IC50) is 3570 nM.
For the compound `Cc1c(C(=O)NCC2CCO2)oc2c1-c1nn(Cc3ccccn3)cc1CC2` (racemic) [Example 35, 8-methyl-N-[(2R/S)-oxetan-2-ylmethyl]-2-(pyridin-2-ylmethyl)-4,5-dihydro-2H-furo[2,3-g]indazole-7-carboxamide], the IC50 is 470 nM.
In the case of `Cc1c(C(=O)NCC2CN(C)CCO2)oc2c1-c1nn(Cc3ccccn3)cc1CC2` (racemic) [Example 38, 8-methyl-N-{[(2R/S)-4-methylmorpholin-2-yl]methyl}-2-(pyridin-2-ylmethyl)-4,5-dihydro-2H-furo[2,3-g]indazole-7-carboxamide], the IC50 amounted to 700 nM.
Turning to `Cc1c(C(=O)NCC2CCC(=O)O2)oc2c1-c1nn(Cc3ccccn3)cc1CC2` (racemic) [Example 39, 8-methyl-N-{[(2R/S)-5-oxotetrahydrofuran-2-yl]methyl}-2-(pyridin-2-ylmethyl)-4,5-dihydro-2H-furo[2,3-g]indazole-7-carboxamide], the IC50 worked out at 960 nM.
As to `Cc1c(C(=O)NCc2cc(C3CC3)on2)oc2c1-c1nn(CC3COc4ncccc4O3)cc1CC2` (racemic) [Example 50, N-[(5-cyclopropyl-1,2-oxazol-3-yl)methyl]-2-[(2R/S)-2,3-dihydro[1,4]dioxino[2,3-b]pyridin-2-ylmethyl]-8-methyl-4,5-dihydro-2H-furo[2,3-g]indazole-7-carboxamide], the IC50 was 35 nM.
As to `Cc1c(C(=O)NC[C@H]2CCCO2)oc2c1-c1nn(C[C@@H]3COc4ncccc4O3)cc1CC2` (racemic) [Example 51, 2-[(2R/S)-2,3-dihydro[1,4]dioxino[2,3-b]pyridin-2-ylmethyl]-8-methyl-N-[(2R/S)-tetrahydrofuran-2-ylmethyl]-4,5-dihydro-2H-furo[2,3-g]indazole-7-carboxamide], the IC50 was determined as 56 nM.
Consider `Cc1c(C(=O)NCCN2CCN(C)CC2)oc2c1-c1nn(CC3COc4ncccc4O3)cc1CC2` (racemic) [Example 54, 2-[(2R/S)-2,3-dihydro[1,4]dioxino[2,3-b]pyridin-2-ylmethyl]-8-methyl-N-[2-(4-methylpiperazin-1-yl)ethyl]-4,5-dihydro-2H-furo[2,3-g]indazole-7-carboxamide], for which the IC50 stood at 550 nM.
As to `Cc1c(C(=O)NCc2ccon2)oc2c1-c1nn(CC3COc4ncccc4O3)cc1CC2` (racemic) [Example 55, 2-[(2R/S)-2,3-dihydro[1,4]dioxino[2,3-b]pyridin-2-ylmethyl]-8-methyl-N-(1,2-oxazol-3-ylmethyl)-4,5-dihydro-2H-furo[2,3-g]indazole-7-carboxamide], the IC50 was determined as 49 nM.
The figure for `Cc1cccc(Cn2cc3c(n2)-c2c(oc(C(=O)NCC4CCCO4)c2C)CC3)n1` (racemic) [Example 66, 8-methyl-2-[(6-methylpyridin-2-yl)methyl]-N-[(2R/S)-tetrahydrofuran-2-ylmethyl]-4,5-dihydro-2H-furo[2,3-g]indazole-7-carboxamide] is 160 nM.
Turning to `Cc1cccc(Cn2cc3c(n2)-c2c(oc(C(=O)NCC4COc5ncccc5O4)c2C)CC3)n1` (racemic) [Example 70, N-[(2R/S)-2,3-dihydro[1,4]dioxino[2,3-b]pyridin-2-ylmethyl]-8-methyl-2-[(6-methylpyridin-2-yl)methyl]-4,5-dihydro-2H-furo[2,3-g]indazole-7-carboxamide], the IC50 stood at 77 nM.
As for `Cc1c(C(=O)NCC2CCC(C)(C)O2)oc2c1-c1nn(Cc3ccccn3)cc1CC2` (racemic) [Example 170], the IC50 was determined as 30 nM.
For `Cc1c(C(=O)NCC2CCCCO2)oc2c1-c1nn(Cc3ccccn3)cc1CC2` (racemic) [Example 172], the IC50 was found to be 12000 nM.
In the case of `Cc1c(C(=O)NCC2(C)CCCO2)oc2c1-c1nn(Cc3ccccn3)cc1CC2` (racemic) [Example 173], the IC50 amounted to 7070 nM.
On to `Cc1c(C(=O)NCC2CC(F)(F)CO2)oc2c1-c1nn(Cc3ccccn3)cc1CC2` (racemic) [Example 174], for which the IC50 turned out to be 97 nM.
On to `Cc1c(C(=O)NC[C@H]2OCC[C@H]2C)oc2c1-c1nn(Cc3ccccn3)cc1CC2` (racemic) [Example 177], for which the IC50 is 2600 nM.
Take `Cc1c(C(=O)NCC2CC3(CC3)CO2)oc2c1-c1nn(Cc3ccccn3)cc1CC2` (racemic) [Example 178]: the IC50 was 92 nM.
Consider `Cc1c(C(=O)NCC2OCCC2(C)C)oc2c1-c1nn(Cc3ccccn3)cc1CC2` (racemic) [Example 179], for which the IC50 stood at 6410 nM.
Turning to `Cc1c(C(=O)NCC2CCC3(COC3)O2)oc2c1-c1nn(Cc3ccccn3)cc1CC2` (racemic) [Example 180], the IC50 came out at 210 nM.
Consider `Cc1c(C(=O)NCC2COCC(C)(C)O2)oc2c1-c1nn(Cc3ccccn3)cc1CC2` (racemic) [Example 181], for which the IC50 amounted to 102 nM.
As to `Cc1c(C(=O)NCC2CCO2)oc2c1-c1nn(Cc3ccccn3)cc1CC2` (single isomer, unassigned) [Example 35-1], the IC50 worked out at 180 nM.
Consider `Cc1c(C(=O)NCC2CCO2)oc2c1-c1nn(Cc3ccccn3)cc1CC2` (single isomer, unassigned) [Example 35-2], for which the IC50 was 770 nM.
Take `Cc1c(C(=O)NCC2CN(C)CCO2)oc2c1-c1nn(Cc3ccccn3)cc1CC2` (single isomer, unassigned) [Example 38-1]: the IC50 was found to be 1420 nM.
Consider `Cc1c(C(=O)NCC2CN(C)CCO2)oc2c1-c1nn(Cc3ccccn3)cc1CC2` (single isomer, unassigned) [Example 38-2], for which the IC50 was 3520 nM.

The values are drawn from US12570666B2, “Furoindazole derivatives” (Bayer Aktiengesellschaft, priority 2019, dated 2026).
